Data published in article PMC7699745, “The Search for New Anticonvulsants in a Group of (2,5-Dioxopyrrolidin-1-yl)(phenyl)Acetamides with Hybrid Structure—Synthesis and In Vivo/In Vitro Studies” (International Journal of Molecular Sciences, 2020).
Where two headings read alike, the source gives them in different places.

Assays:
MES seizures, mice = assay: Maximal electroshock (MES) seizure test; assay type: in vivo; conditions: Mus musculus, ip; for responders at 100 mg/kg: 0.5 h, i.p.; for ED50: at TPE (0.5 h; LTG 1.0 h), 95% confidence intervals in parentheses
[1] = test system: 6 Hz (32 mA) seizures, mice; assay: Psychomotor 6 Hz (32 mA) seizure model; assay type: in vivo; conditions: for responders at 100 mg/kg / ED50: Mus musculus, ip; for responders at 100 mg/kg / protection in the 6 Hz (32 mA) test: 0.5 h, 100 mg/kg; for responders at 100 mg/kg: read-out: 6 Hz (32 mA) test, number of mice protected / number of mice tested (converted); for ED50: at TPE (0.5 h; LTG 1.0 h), 95% confidence intervals in parentheses; for protection in the 6 Hz (32 mA) test: i.p., groups of four
[2] = test system: motor coordination of mice; assay: Rotarod test for acute neurological toxicity; conditions: for impairment of motor coordination of mice: doses as high as 300 mg/kg; for Rotarod test, number of mice / number of mice tested: i.p., 100 mg/kg, 0.5 h
[3] = Rotarod test for acute neurological toxicity; conditions: mouse, in vivo, ip
[4] = groups of four, read-out: protection in the MES test
[5] = read-out: MES test, number of mice protected / number of mice tested (converted)

Molecule `O=C(Nc1cccc(Cl)c1)C(c1ccccc1)N1C(=O)CCC1=O` (stereo not drawn) [Compound 8, N-(3-Chlorophenyl)-2-(2,5-dioxopyrrolidin-1-yl)-2-phenylacetamide] has a melting point of 109.4 to 109.9 °C, a responders at 100 mg/kg (MES seizures, mice; [4]) of no less than 50% and a responders at 100 mg/kg (MES seizures, mice; [5]) of 75%. For the same molecule, the ED50 (MES seizures, mice) was 73.5 mg/kg, the responders at 100 mg/kg [1] was 25% and the “impairment of motor coordination of mice” value [2] was “did not impair motor coordination”. For the same molecule, the “Rotarod test, number of mice / number of mice tested” value [2] was 0/4 and the TD50 at 0.5 h [3] was greater than 300 mg/kg.

`O=C(Nc1ccccc1C(F)(F)F)C(c1ccccc1)N1C(=O)CCC1=O` (stereo not drawn) [Compound 10, 2-(2,5-Dioxopyrrolidin-1-yl)-2-phenyl-N-(2-(trifluoromethyl)phenyl)acetamide] gave a responders at 100 mg/kg (MES seizures, mice; [5]) of 0%.

Molecule `O=C(NCCc1ccc(Cl)cc1)C(c1ccccc1)N1C(=O)CCC1=O` (stereo not drawn) [Compound 28, N-(4-Chlorophenethyl)-2-(2,5-dioxopyrrolidin-1-yl)-2-phenylacetamide] has a melting point of 137.2 to 137.8 °C, a responders at 100 mg/kg (MES seizures, mice; [5]) of 100% and an ED50 (MES seizures, mice) of 117 mg/kg. For the same molecule, the responders at 100 mg/kg [1] was 75%, the ED50 [1] was 88.1 mg/kg and the “Rotarod test, number of mice / number of mice tested” value [2] was 1/4. For the same molecule, the TD50 at 0.5 h [3] was 272 mg/kg.

With `O=C(Nc1cccc(C(F)(F)F)c1)C(c1ccccc1)N1C(=O)CCC1=O` (stereo not drawn) [Compound 11, 2-(2,5-Dioxopyrrolidin-1-yl)-2-phenyl-N-(3-(trifluoromethyl)phenyl)acetamide] the melting point was 158.2 to 159.4 °C and the responders at 100 mg/kg (MES seizures, mice; [5]) was 25%.

For `O=C(NCCc1ccccc1F)C(c1ccccc1)N1C(=O)CCC1=O` (stereo not drawn) [Compound 26, 2-(2,5-Dioxopyrrolidin-1-yl)-N-(2-fluorophenethyl)-2-phenylacetamide], the melting point was 142.4 to 142.8 °C and the responders at 100 mg/kg (MES seizures, mice; [5]) was 25%.

Work on `O=C(Nc1ccc(F)cc1)C(c1ccccc1)N1C(=O)CCC1=O` (stereo not drawn) [Compound 6, 2-(2,5-Dioxopyrrolidin-1-yl)-N-(4-fluorophenyl)-2-phenylacetamide] yielded a melting point of 143.4 to 143.9 °C, a responders at 100 mg/kg (MES seizures, mice; [4]) of no less than 50% and a responders at 100 mg/kg (MES seizures, mice; [5]) of 50%. It also gave an ED50 (MES seizures, mice) of 118 mg/kg, a responders at 100 mg/kg [1] of 50% and an ED50 [1] of 57.6 mg/kg. The “protection in the 6 Hz (32 mA) test” value [1] was “at least 50%”, the “impairment of motor coordination of mice” value [2] was “did not impair motor coordination” and the “Rotarod test, number of mice / number of mice tested” value [2] was 0/4. It also gave a TD50 at 0.5 h [3] greater than 300 mg/kg.

For `O=C(Nc1ccc(C(F)(F)F)cc1)C(c1ccccc1)N1C(=O)CCC1=O` (stereo not drawn) [Compound 12, 2-(2,5-Dioxopyrrolidin-1-yl)-2-phenyl-N-(4-(trifluoromethyl)phenyl)acetamide], the melting point was 188.1 to 188.5 °C and the responders at 100 mg/kg (MES seizures, mice; [5]) was 0%.

For `O=C(NCc1ccccc1Cl)C(c1ccccc1)N1C(=O)CCC1=O` (stereo not drawn) [Compound 18, N-(2-Chlorobenzyl)-2-(2,5-dioxopyrrolidin-1-yl)-2-phenylacetamide], the melting point was 152 to 153.6 °C and the responders at 100 mg/kg (MES seizures, mice; [5]) was 0%.

In the case of `O=C(NCCCc1ccccc1)C(c1ccccc1)N1C(=O)CCC1=O` (stereo not drawn) [Compound 31, 2-(2,5-Dioxopyrrolidin-1-yl)-2-phenyl-N-(3-phenylpropyl)acetamide], the melting point is reported as 133.1 to 133.9 °C, the responders at 100 mg/kg (MES seizures, mice; [4]) is reported as no less than 50% and the responders at 100 mg/kg (MES seizures, mice; [5]) is reported as 50%. For the same molecule, the responders at 100 mg/kg [1] was 50%, the ED50 [1] was 104 mg/kg and the “Rotarod test, number of mice / number of mice tested” value [2] was 0/4. It also gave a TD50 at 0.5 h [3] greater than 300 mg/kg.

`O=C(NCc1cccc(C(F)(F)F)c1)C(c1ccccc1)N1C(=O)CCC1=O` (stereo not drawn) [Compound 22, 2-(2,5-Dioxopyrrolidin-1-yl)-2-phenyl-N-(3-(trifluoromethyl)benzyl)acetamide] showed a melting point of 152.8 to 153.4 °C, a responders at 100 mg/kg (MES seizures, mice; [4]) of no less than 50% and a responders at 100 mg/kg (MES seizures, mice; [5]) of 75%. For the same molecule, the ED50 (MES seizures, mice) was greater than 130 mg/kg, the responders at 100 mg/kg [1] was 50% and the ED50 [1] was 57.6 mg/kg. The “protection in the 6 Hz (32 mA) test” value [1] was “at least 50%”, the “impairment of motor coordination of mice” value [2] was “did not impair motor coordination” and the “Rotarod test, number of mice / number of mice tested” value [2] was 0/4. The TD50 at 0.5 h [3] was greater than 300 mg/kg.

`O=C(NCc1ccc(F)cc1)C(c1ccccc1)N1C(=O)CCC1=O` (stereo not drawn) [Compound 17, 2-(2,5-Dioxopyrrolidin-1-yl)-N-(4-fluorobenzyl)-2-phenylacetamide] gave a melting point of 146.3 to 147.7 °C and a responders at 100 mg/kg (MES seizures, mice; [5]) of 0%.

In the case of `O=C(Nc1ccccc1Cl)C(c1ccccc1)N1C(=O)CCC1=O` (stereo not drawn) [Compound 7, N-(2-Chlorophenyl)-2-(2,5-dioxopyrrolidin-1-yl)-2-phenylacetamide], the melting point is reported as 76.8 to 78.6 °C, the responders at 100 mg/kg (MES seizures, mice; [5]) is reported as 0% and the responders at 100 mg/kg [1] is reported as 25%.

In the case of `O=C(NCc1ccc(C(F)(F)F)cc1)C(c1ccccc1)N1C(=O)CCC1=O` (stereo not drawn) [Compound 23, 2-(2,5-Dioxopyrrolidin-1-yl)-2-phenyl-N-(4-(trifluoromethyl)benzyl)acetamide], the responders at 100 mg/kg (MES seizures, mice; [5]) is reported as 0%.

With `O=C(Nc1cccc(F)c1)C(c1ccccc1)N1C(=O)CCC1=O` (stereo not drawn) [Compound 5, 2-(2,5-Dioxopyrrolidin-1-yl)-N-(3-fluorophenyl)-2-phenylacetamide] the responders at 100 mg/kg (MES seizures, mice; [5]) was 0% and the responders at 100 mg/kg [1] was 25%.

`O=C(NCc1ccc(Cl)cc1)C(c1ccccc1)N1C(=O)CCC1=O` (stereo not drawn) [Compound 20, N-(4-Chlorobenzyl)-2-(2,5-dioxopyrrolidin-1-yl)-2-phenylacetamide] gave a melting point of 146.3 to 147.9 °C and a responders at 100 mg/kg (MES seizures, mice; [5]) of 0%.

`O=C(Nc1ccc(Cl)cc1)C(c1ccccc1)N1C(=O)CCC1=O` (stereo not drawn) [Compound 9, N-(4-Chlorophenyl)-2-(2,5-dioxopyrrolidin-1-yl)-2-phenylacetamide] gave a melting point of 103.8 to 105.6 °C, a responders at 100 mg/kg (MES seizures, mice; [4]) of no less than 50% and a responders at 100 mg/kg (MES seizures, mice; [5]) of 75%. The ED50 (MES seizures, mice) was 106 mg/kg, the responders at 100 mg/kg [1] was 25% and the “impairment of motor coordination of mice” value [2] was “did not impair motor coordination”. For the same molecule, the “Rotarod test, number of mice / number of mice tested” value [2] was 0/4 and the TD50 at 0.5 h [3] was greater than 300 mg/kg.

Molecule `O=C(NCc1cccc(F)c1)C(c1ccccc1)N1C(=O)CCC1=O` (stereo not drawn) [Compound 16, 2-(2,5-Dioxopyrrolidin-1-yl)-N-(3-fluorobenzyl)-2-phenylacetamide] has a melting point of 136.7 to 137.7 °C and a responders at 100 mg/kg (MES seizures, mice; [5]) of 25%.

With `O=C(NCc1ccccc1F)C(c1ccccc1)N1C(=O)CCC1=O` (stereo not drawn) [Compound 15, 2-(2,5-Dioxopyrrolidin-1-yl)-N-(2-fluorobenzyl)-2-phenylacetamide] the melting point was 148.3 to 149.3 °C and the responders at 100 mg/kg (MES seizures, mice; [5]) was 25%.

With `O=C(NCc1cccc(Cl)c1)C(c1ccccc1)N1C(=O)CCC1=O` (stereo not drawn) [Compound 19, N-(3-Chlorobenzyl)-2-(2,5-dioxopyrrolidin-1-yl)-2-phenylacetamide] the responders at 100 mg/kg (MES seizures, mice; [4]) was no less than 50%, the responders at 100 mg/kg (MES seizures, mice; [5]) was 75% and the ED50 (MES seizures, mice) was 90.7 mg/kg. For the same molecule, the responders at 100 mg/kg [1] was 50%, the ED50 [1] was 89.9 mg/kg and the “protection in the 6 Hz (32 mA) test” value [1] was “at least 50%”. For the same molecule, the “impairment of motor coordination of mice” value [2] was “did not impair motor coordination”, the “Rotarod test, number of mice / number of mice tested” value [2] was 0/4 and the TD50 at 0.5 h [3] was greater than 300 mg/kg.

For `O=C(Nc1cccc(OC(F)(F)F)c1)C(c1ccccc1)N1C(=O)CCC1=O` (stereo not drawn) [Compound 13, 2-(2,5-Dioxopyrrolidin-1-yl)-2-phenyl-N-(3-(trifluoromethoxy)phenyl)acetamide], the melting point was 132.6 to 133.4 °C and the responders at 100 mg/kg (MES seizures, mice; [5]) was 0%.
